Experimental data from US8741644B2, “Method for producing mast cells from pluripotent stem cells” (Kyoto University, priority 2009, dated 2014).
Where no end group is shown, it is not given here.

Test system: hESC-MCs
Assay: Activation of MCs: histamine release from hESC-MCs upon stimulation (ELISA histamine kit)
Type: cell-based, human
Details: hESC (H1)-derived mast cells, 15 min at 37° C., FIG. 13
Procedure: For stimulation, substance P (Sigma), compound 48/80 or control medium was added to a 25 μl cell suspension (4×10^5 MCs/ml) in 96-well plates, and incubated for further 15 min at 37° C. The reaction was stopped by adding 200 μl ice-cold buffer. The cells were separated by centrifugation at 300×g for 7 min at 4° C., and the supernatant was collected. The cell pellet was resuspended in […] containing 0.5% Triton-X and 0.1% bovine serum albumin (BSA), quick frozen in liquid nitrogen and thawed 4 times. After centrifugation at 12,000×g for 15 min at 4° C., the soluble extract was collected. Histamine levels were measured by an ELISA histamine kit (Beckman Coulter)

Substance: substance P (RPKPQQFFGLM; ends and bridges not checked; UniProt P20366 58-68, looked up) [neuropeptide used as mast cell stimulant (Sigma)]
- degranulation to release histamine: dose-dependent degranulation
